The values below are quoted from earlier work in patent US20190167612A1, “PHARMACEUTICAL FORMULATION FOR ORAL ADMINISTRATION WITH CONTROLLED DISSOLUTION RATE COMPRISING SUSTAINED-RELEASE PELLETS CONTAINING TAMSULOSIN HYDROCHLORIDE” (HANMl PHARM. CO., LTD., priority 2016, published 2019).

The conditions of data set [1]: in vivo.

Where a name gives a salt, the structure may show the parent alone.

As to `CCOc1ccccc1OCCN[C@H](C)Cc1ccc(OC)c(S(N)(=O)=O)c1` [Tamsulosin hydrochloride, (R)-5-[2-[[2-(2-ethoxyphenoxy)ethyl]-amino]propyl]-2-methoxy-benzenesulfonamide], the Solubility in water entry is given as “slight solubility in water”. Moreover, the Bioavailability in data set [1] was ≥ 90%.
